target: Glutamate carboxypeptidase 2 (Homo sapiens, UniProt Q04609); assay: Inhibition of recombinant human PSMA using [3H]NAAG as substrate preincubated for 15 mins followed by substrate addition measured after 20 mins by liquid scintillation method
Sequence (Q04609 whole entry): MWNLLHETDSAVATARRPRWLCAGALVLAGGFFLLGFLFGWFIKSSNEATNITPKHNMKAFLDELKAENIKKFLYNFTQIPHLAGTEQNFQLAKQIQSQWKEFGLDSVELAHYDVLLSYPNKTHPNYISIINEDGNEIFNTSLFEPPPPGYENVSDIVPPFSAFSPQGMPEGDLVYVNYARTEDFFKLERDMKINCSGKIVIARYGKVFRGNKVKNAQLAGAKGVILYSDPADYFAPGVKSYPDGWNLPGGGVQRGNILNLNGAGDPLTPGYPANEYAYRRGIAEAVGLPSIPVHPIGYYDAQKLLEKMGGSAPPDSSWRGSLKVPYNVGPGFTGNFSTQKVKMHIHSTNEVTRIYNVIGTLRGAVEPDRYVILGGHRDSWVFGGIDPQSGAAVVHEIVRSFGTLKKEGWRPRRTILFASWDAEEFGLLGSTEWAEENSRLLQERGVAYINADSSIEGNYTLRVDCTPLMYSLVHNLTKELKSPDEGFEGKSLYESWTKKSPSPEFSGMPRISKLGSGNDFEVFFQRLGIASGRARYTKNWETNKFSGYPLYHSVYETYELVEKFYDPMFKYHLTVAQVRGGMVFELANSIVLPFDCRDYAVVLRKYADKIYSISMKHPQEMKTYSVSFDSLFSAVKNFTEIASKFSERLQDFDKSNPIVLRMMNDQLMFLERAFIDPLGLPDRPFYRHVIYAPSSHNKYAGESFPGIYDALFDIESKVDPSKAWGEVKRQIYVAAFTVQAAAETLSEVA

Row | SMILES | IC50
1 | O=C(O)CC[C@H](NC(=O)N[C@@H](CCCC(=O)NCc1ccc(F)cc1)C(=O)O)C(=O)O | 2.32 nM
2 | CN(Cc1ccc(F)cc1)C(=O)CCC[C@H](NC(=O)N[C@@H](CCC(=O)O)C(=O)O)C(=O)O | 0.64 nM
3 | O=C(O)CC[C@H](NC(=O)N[C@@H](CCCC(=O)N1CCN(c2ccc(F)cc2)CC1)C(=O)O)C(=O)O | 1.31 nM
4 | CN(Cc1cccc(F)c1)C(=O)CCC[C@H](NC(=O)N[C@@H](CCC(=O)O)C(=O)O)C(=O)O | 0.46 nM
5 | O=C(O)CC[C@H](NC(=O)N[C@@H](CCCC(=O)NCc1ccccc1F)C(=O)O)C(=O)O | 2.11 nM
6 | O=C(O)CC[C@H](NC(=O)N[C@@H](CCCC(=O)NCCNC(=O)c1ccc(F)cc1)C(=O)O)C(=O)O | 0.94 nM
7 | C[C@@H](NC(=O)CCC[C@H](NC(=O)N[C@@H](CCC(=O)O)C(=O)O)C(=O)O)c1ccc(F)cc1 | 5.44 nM
8 | O=C(O)CC[C@H](NC(=O)N[C@@H](CCCC(=O)NCc1cccc(F)c1)C(=O)O)C(=O)O | 2.91 nM
9 | C[C@H](NC(=O)CCC[C@H](NC(=O)N[C@@H](CCC(=O)O)C(=O)O)C(=O)O)c1ccc(F)cc1 | 5.24 nM
10 | O=C(O)CC[C@H](NC(=O)N[C@@H](CCCC(=O)Nc1cccc(F)c1)C(=O)O)C(=O)O | 0.28 nM
11 | O=C(O)CC[C@H](NC(=O)N[C@@H](CCCC(=O)N(CCNC(=O)c1ccc(F)nc1)c1ccccc1)C(=O)O)C(=O)O | 0.13 nM
12 | O=C(O)CC[C@H](NC(=O)N[C@@H](CCCC(=O)N(CCNC(=O)c1ccc(F)cc1)c1ccccc1)C(=O)O)C(=O)O | 0.15 nM
13 | O=C(O)CC[C@H](NC(=O)N[C@@H](CCCC(=O)Nc1ccc(F)nc1)C(=O)O)C(=O)O | 0.99 nM
14 | C[C@H](NC(=O)CCC[C@H](NC(=O)N[C@@H](CCC(=O)O)C(=O)O)C(=O)O)c1ccc(F)nc1 | 4.46 nM
15 | O=C(O)CC[C@H](NC(=O)N[C@@H](CCCC(=O)NC(c1ccc(F)cc1)c1ccc(F)cc1)C(=O)O)C(=O)O | 1.19 nM
16 | CN(C(=O)CCC[C@H](NC(=O)N[C@@H](CCC(=O)O)C(=O)O)C(=O)O)c1ccc(F)nc1 | 0.075 nM
17 | O=C(O)CC[C@H](NC(=O)N[C@@H](CCCC(=O)NCCNC(=O)c1ccc(F)nc1)C(=O)O)C(=O)O | 1.11 nM
18 | O=C(O)CC[C@H](NC(=O)N[C@@H](CCCC(=O)Nc1ccc(F)cc1)C(=O)O)C(=O)O | 0.35 nM
19 | CN(C(=O)CCC[C@H](NC(=O)N[C@@H](CCC(=O)O)C(=O)O)C(=O)O)c1ccc(F)cc1 | 0.2 nM

— ChEMBL document CHEMBL4266058, “2-Aminoadipic Acid-C(O)-Glutamate Based Prostate-Specific Membrane Antigen Ligands for Potential Use as Theranostics” (ACS Med Chem Lett, 2018)
